For assay [1], the system named is C33A. Put plainly: Cell proliferation assay (MTS or SRB), C33A. The format is cell-based, human. The following applies: Cervical, 3 days, read-out: IC50 (cell growth inhibition). As for the experimental part:
(§1) In vitro cell proliferation assays were performed using a 96-well plate based MTSassay (CellTiter 96° AqueousOne Solution Cell Proliferation Assay, Promega) or SRB (Sulforhodamine-B) assay (1-3). Briefly, cells were plated in 100 μl medium on day 0 in 96-well microtiter plates (Falcon #3072). On day 1, 10 μl of serial dilutions of each compound (Nine 1:2 dilutions with a starting concentration of 100 μM; in some cases, a starting concentration of 400 μM (CMX001 or Cidofovir) or 1 μM (some standard agents)) were added in triplicates to the plates. For standard agents using DMSO as solvent, serial dilutions of DMSO with a starting concentration of 0.5% were also included as a vehicle control.
(§2) After incubation for 3 days at 37° C. in a humidified incubator, viable cells were measured either by MTS or SRB assay. For MTS assay, 20 μl of a 20:1 mixture of (3-(4,5-dimethylthiazol-2-yl)-5-(3-carboxymethoxyphenyl)-2-(4-sulfophenyl)-2H-tetrazolium, inner salt (MTS, 2 mg/ml) and an electron coupling reagent, phenazine methosulfate (PMS, 0.92 mg/ml in DPBS), was added to each well and incubated for 3 hours at 37° C. Absorbance was measured using a BioTek Synergy™ HT Multiple Detection microplate reader at 490 nm. For SRB assay, cells were fixed in situ with 50 μL of cold trichloroacetic acid (TCA, final concentration at 10% w/v) for 60 minutes. Cells were then washed 5 times with H2O and air-dried.
(§3) Next, cells were stained with 20 μL of 0.2% SRB in 1% acetic acid and incubated at room temperature for 30 minutes and unbound SRB was removed by washing 5 times with 1% acetic acid and air-dried. Finally, bound SRB stain was solubilized in 50 μL of 50 μM Tris buffer before taking an optical density measurement at 570 nm using the BioTek microplate reader. The growth inhibition data were expressed as the percentage of cell survival calculated from the background corrected absorbance. The surviving fraction of cells was determined by dividing the mean absorbance values of the test agent-treated samples by the mean absorbance values of untreated control. […]

In assay [2] the test system is SiHa. Put plainly: Cell proliferation assay (MTS or SRB), SiHa. It is filed as cell-based, human. The following applies: Cervical, 3 days, read-out: IC50 (cell growth inhibition). As for the experimental part:
as §1, §2, §3

Assay [3] has as its system SK-OV-3. Put plainly: Cell proliferation assay (MTS or SRB), SK-OV-3. The format is cell-based, human. The following applies: SK-OV-3, Ovarian, 3 days; read-out: IC50 (cell growth inhibition). On the procedure:
as §1, §2, §3

Assay [4] concerns OVCAR-3. Put plainly: Cell proliferation assay (MTS or SRB), OVCAR-3. It is filed as cell-based, human. To be noted: OVCAR-3, Ovarian, 3 days; read-out: IC50 (cell growth inhibition). On the procedure:
as §1, §2, §3

Assay [5] concerns BK virus. Put plainly: Antiviral activity against BK virus in RPTEC cells (viral DNA by qPCR, 5 days). The following applies: for pEC50: Betapolyomavirus hominis, RPTEC, RPTEC cells. It is filed as cell-based. On the procedure:
In order to test the activity of CMX001 to inhibit replication of BK virus, stocks of BK virus were prepared in HFF cells and dilutions of the virus stocks were used to infect primary human renal tubular epithelial cells (RPTECs). CMX001 were then added to the wells containing the infected cells and the plates were incubated for 5 days. Total DNA was prepared from the plates and viral DNA was quantified by qPCR.
Background: Quantitative PCR measures a nucleic acid by following its amplification.

Assay [6] has as its system HT-29. Put plainly: Cell proliferation assay (MTS or SRB), HT-29. It is filed as cell-based, human. To be noted: HT-29, Colon, 3 days; read-out: IC50 (cell growth inhibition). As for the experimental part:
as §1, §2, §3

Assay [7] relates to HCT-116. Put plainly: Cell proliferation assay (MTS or SRB), HCT-116. The format is cell-based, human. To be noted: HCT-116, Colon, 3 days; read-out: IC50 (cell growth inhibition). On the procedure:
as §1, §2, §3

Assay [8] has as its system PANC-1. Put plainly: Cell proliferation assay (MTS or SRB), PANC-1. The format is cell-based. To be noted: Homo sapiens, 72 h; PANC-1, Pancreatic, 3 days; read-out: IC50 (cell growth inhibition). On the procedure:
as §1, §2, §3

Assay [9] relates to MIA PaCa-2. Nature of the assay: Cell proliferation assay (MTS or SRB), MIA PaCa-2. The following applies: Homo sapiens, 72 h; MIA PaCa-2, Pancreatic, 3 days; read-out: IC50 (cell growth inhibition). It is filed as cell-based. On the procedure:
as §1, §2, §3

The subject of assay [10] is A2058. Nature of the assay: Cell proliferation assay (MTS or SRB), A2058. The format is cell-based. The following applies: Homo sapiens, 72 h; A2058, Skin (melanoma), 3 days; read-out: IC50 (cell growth inhibition). As for the experimental part: as §1, §2
(§4) Next, cells were stained with 20 μL of 0.2% SRB in 1% acetic acid and incubated at room temperature for 30 minutes and unbound SRB was removed by washing 5 times with 1% acetic acid and air-dried. Finally, bound SRB stain was solubilized in 50 μL of 50 μM Tris buffer before taking an optical density measurement at 570 nm using the BioTek microplate reader. The growth inhibition data were expressed as the percentage of cell survival calculated from the background corrected absorbance. The surviving fraction of cells was determined by dividing the mean absorbance values of the test agent-treated samples by the mean absorbance values of untreated control.
(§5) Raw data were acquired using a BioTek Synergy™ HT Multiple Detection microplate reader and imported into Microsoft Excel for analysis. The average signal of each treatment was calculated from the triplicates after subtracting the blank signals. The percentage survival values were calculated using the following formula: % survival=(average signal of the drug treatment/average signal of untreated controls)×100. The data were finally imported into the Prism 4 software (GraphPad Software, San Diego, Calif.) to generate the dose-activity curves using non-linear regression curve fit and to calculate the IC50 values.

The test system of assay [11] is SK-MEL-2. Nature of the assay: Cell proliferation assay (MTS or SRB), SK-MEL-2. It is filed as cell-based. To be noted: Homo sapiens, 72 h; SK-MEL-2, Skin (melanoma), 3 days; read-out: IC50 (cell growth inhibition). As for the experimental part:
as §1, §2, §4, §5

In assay [12] the test system is PC-3. Put plainly: Cell proliferation assay (MTS or SRB), PC-3. It is filed as cell-based. The following applies: Homo sapiens, 72 h; PC-3, Prostate, 3 days; read-out: IC50 (cell growth inhibition). As for the experimental part: as §1, §2, §3
In assay [13] the test system is MCF-7. Put plainly: Cell proliferation assay (MTS or SRB), MCF-7. It is filed as cell-based. The following applies: Homo sapiens, MCF7, 72 h; MCF-7, Breast, 3 days; read-out: IC50 (cell growth inhibition). On the procedure: as §1, §2, §3
The test system of assay [14] is DU 145. Nature of the assay: Cell proliferation assay (MTS or SRB), DU 145. It is filed as cell-based. To be noted: Homo sapiens, 72 h; DU 145, Prostate, 3 days; read-out: IC50 (cell growth inhibition). On the procedure:
as §1, §2, §3

The subject of assay [15] is A549. Nature of the assay: Cell proliferation assay (MTS or SRB), A549. The format is cell-based. The following applies: Homo sapiens, 72 h; A549, Lung, 3 days; read-out: IC50 (cell growth inhibition). On the procedure:
as §1, §2, §3

Assay [16] relates to MDA-231. Nature of the assay: Cell proliferation assay (MTS or SRB), MDA-231. The format is cell-based. The following applies: Homo sapiens, MDA-MB-231, 72 h; MDA-231, Breast, 3 days; read-out: IC50 (cell growth inhibition). As for the experimental part: as §1, §2, §3
Assay [17] concerns H460. Put plainly: Cell proliferation assay (MTS or SRB), H460. It is filed as cell-based. To be noted: Homo sapiens, NCI-H460, 72 h; H460, Lung, 3 days; read-out: IC50 (cell growth inhibition). As for the experimental part: as §1, §2, §3
The subject of assay [18] is SK-HEP-1. Nature of the assay: Cell proliferation assay (MTS or SRB), SK-HEP-1. The format is cell-based. To be noted: Homo sapiens, SK-HEP1, 72 h; SK-HEP-1, Liver, 3 days; read-out: IC50 (cell growth inhibition). On the procedure:
as §1, §2, §3

The test system of assay [19] is SCaBER. Nature of the assay: Cell proliferation assay (MTS or SRB), SCaBER. The format is cell-based. To be noted: Homo sapiens, 72 h, Bladder, 3 days, read-out: IC50 (cell growth inhibition). On the procedure: as §1, §2, §3
For assay [20], the system named is SW 780. Put plainly: Cell proliferation assay (MTS or SRB), SW 780. It is filed as cell-based. The following applies: Homo sapiens, SW780, 72 h; SW 780, Bladder, 3 days; read-out: IC50 (cell growth inhibition). On the procedure:
as §1, §2, §3

Assay [21] concerns Hep G2. Put plainly: Cell proliferation assay (MTS or SRB), Hep G2. The following applies: Homo sapiens, HepG2, 72 h; Hep G2, Liver, 3 days; read-out: IC50 (cell growth inhibition). It is filed as cell-based. As for the experimental part:
as §1, §2, §3

The test system of assay [22] is Caki-1. Nature of the assay: Cell proliferation assay (MTS or SRB), Caki-1. The format is cell-based. The following applies: Homo sapiens, 72 h; Caki-1, Kidney, 3 days; read-out: IC50 (cell growth inhibition). On the procedure:
as §1, §2, §3

Assay [23] concerns Caki-2. Nature of the assay: Cell proliferation assay (MTS or SRB), Caki-2. It is filed as cell-based. The following applies: Homo sapiens, 72 h; Caki-2, Kidney, 3 days; read-out: IC50 (cell growth inhibition). As for the experimental part: as §1, §2, §3

Each structure is given as a SMILES string. pEC50, pIC50: −log10 of the molar value.

Broadly, the pIC50 is −log10 of the IC50, conventionally taken in molar units. In the case of `N.N.[Cl][Pt][Cl]` [Cisplatin], the pIC50 in assay [1] was 5.92; in [2] it was 4.81; in assay [3], 5.04; in [4], 5.31.
As usually defined, the pEC50 is −log10 of the EC50, conventionally taken in molar units. For `Nc1nc(O)c2ncn(COC(CO)CO)c2n1` [ganciclovir], the results for the negative-log EC50 (pEC50) in assay [5] (virus dilution 1:10), in assay [5] (virus dilution 1:50) and in [5] (virus dilution 1:100) were 4.05, under 4.00 and 4.15, respectively. Besides, the “activity against BK virus replication” value in assay [5] (RPTECs, in words) was “essentially inactive”.
For `O=C1[O][Pt]2([NH][C@@H]3CCCC[C@H]3[NH]2)[O]C1=O` [Oxaliplatin], the pIC50 in [6] is 6.44; in assay [7] it was 6.32.
Regarding `Nc1ccn([C@@H]2O[C@H](CO)[C@@H](O)C2(F)F)c(=O)n1` [Gemcitabine], the pIC50 in assay [8] is 6.89; in assay [9], 7.54.
Turning to `CN(C)/N=N/c1[nH]cnc1C(N)=O` [DTIC, Dacarbazine], the negative-log IC50 (pIC50) in assay [10] and in [11] was under 4.00 in each case.
With `Cn1nnc2c(C(N)=O)ncn2c1=O` [temozolomide], the pIC50 in assay [10] and in assay [11] was under 4.00 each time.
Regarding `CC(=O)O[C@@]12CO[C@@H]1C[C@H](O)[C@@]1(C)C(=O)[C@H](O)C3=C(C)[C@@H](OC(=O)[C@H](O)[C@@H](NC(=O)OC(C)(C)C)c4ccccc4)C[C@@](O)([C@@H](OC(=O)c4ccccc4)[C@H]21)C3(C)C` [Docetaxel], the negative-log IC50 (pIC50) in assay [12] was 8.96; in [13], 7.82; in assay [14], 8.62; in assay [15], 8.85; in assay [16], 8.55; in assay [17], 8.38.
Consider `COc1cccc2c1C(=O)c1c(O)c3c(c(O)c1C2=O)C[C@@](O)(C(=O)CO)C[C@@H]3O[C@H]1C[C@H](N)[C@H](O)[C@H](C)O1` [Doxorubicin], for which the pIC50 in [18] is 7.54; in [19], 7.22; in [20] it was 6.80; in [21], 7.30; in [22], 7.13; in assay [23], 5.91.

For the origin of these results see patent publication US20120164104A1, “Composition and Methods of Treating Viral Infections and Viral Induced Tumors” (Chimerix, Inc., priority 2009, published 2012).
